{
  "source": "the supplement of paper PMC3974653",
  "note": "Counter-ions that a name gives are not always drawn.",
  "data": [
    {"test_system": "MTT (mouse pheochromocytoma)", "test": "IC50 of cell viability (ATP content)", "settings": "(24 or 48 h)", "summary_of_the_method": "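Library compounds were tested at 8 final concentrations (0.5 nM to 46 µM) on MTT mouse pheochromocytoma cells for 24 or 48 hrs, with readout by CellTiter-Glo ATP luminescence. Signals were normalised with positive-control wells at 100% and DMSO wells at 0%. IC50 values were obtained by a four-parameter logistic fit.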", "units": {"IC50 of cell viability": "µM"}, "values": [
      {"compound": "C[C@]12CCC3C(CCC/4=C/C(=O)CCC34)C1CC[C@@]2(O)C#C", "note": "(some centres not stated) [NORETHINDRONE]", "IC50 of cell viability": "> 46"},
      {"compound": "CC(=O)O[C@@]1(CC[C@H]2[C@@H]3CCC/4=C/C(=O)CC[C@@H]4[C@H]3CC[C@]12C)C#C", "note": "[NORETHISTERONE ACETATE]", "IC50 of cell viability": "> 46"},
      {"compound": "O=C1NC(=O)C2C3C=CC(C3)C12", "note": "(configuration not stated) [NOREXIMIDUM]", "IC50 of cell viability": "> 46"},
      {"compound": "NCC(O)c1cccc(O)c1", "note": "(configuration not stated) [NORFENEFRINE HYDROCHLORIDE]", "IC50 of cell viability": "> 46"},
      {"compound": "C#C[C@]1(OC(C)=O)CC[C@H]2[C@@H]3CCC4=C/C(=N/O)CC[C@@H]4[C@H]3CC[C@@]21CC", "note": "[NORGESTIMATE]", "IC50 of cell viability": "> 46"},
      {"compound": "O=C1N=C2SCCN2C(=O)C1Cc1ccc(Cl)cc1", "note": "(configuration not stated) [NUCLOMEDONUM]", "IC50 of cell viability": "> 46"},
      {"compound": "CC(CCc1ccccc1)NC(C)C(O)c1ccc(O)cc1", "note": "(configuration not stated) [NYLIDRIN]", "IC50 of cell viability": "> 46"},
      {"compound": "CC(=O)NC(CCC(N)=O)C(=O)O", "note": "[Na-Acetyl-L-glutamine]", "IC50 of cell viability": "> 46"},
      {"compound": "COc1ccc2cc(CCC(C)=O)ccc2c1", "note": "[Nabumetone]", "IC50 of cell viability": "> 46"},
      {"compound": "NC(=O)c1ccc[n+]([C@@H]2O[C@@H](CO[P@@](=O)([O-])O[P@@](=O)(O)OC[C@@H]3O[C@@H](n4cnc5c(N)ncnc54)[C@@H](O)[C@H]3O)[C@H](O)[C@@H]2O)c1", "note": "[Nadide]", "IC50 of cell viability": "> 46"},
      {"compound": "CC1CCc2c(N3CCC(O)CC3)c(F)cc3c(=O)c(C(=O)O)cn1c23", "note": "(configuration not stated) [Nadifloxacin]", "IC50 of cell viability": "> 46"},
      {"compound": "CC(C)(C)NC[C@H](O)COc1cccc2c1C[C@@H](O)[C@H](O)C2", "note": "[Nadolol]", "IC50 of cell viability": "> 46"},
      {"compound": "O.[Na+].CCOC1=CC=C2C=CC=CC2=C1C(=O)N[C@H]3[C@@H]4SC(C)(C)[C@@H]([N@@]4C3=O)C([O-])=O", "note": "[Nafcillin sodium salt monohydrate]", "IC50 of cell viability": "> 46"},
      {"compound": "CC(C)(Oc1ccc(C2CCCc3ccccc32)cc1)C(=O)O", "note": "(configuration not stated) [Nafenopin]", "IC50 of cell viability": "> 46"},
      {"compound": "CCN(CC)CCOC(=O)[C@@H](Cc1cccc2ccccc12)C[C@H]1CCCO1", "note": "[Nafronyl oxalate]", "IC50 of cell viability": "> 46"},
      {"compound": "CN(C/C=C\\c1ccccc1)Cc1cccc2ccccc12", "note": "[Naftifine hydrochloride]", "IC50 of cell viability": "> 46"},
      {"compound": "CCN1\\C=C(\\C(O)=O)C(=O)C2=CC=C(C)N=C12", "note": "[Nalidixic acid]", "IC50 of cell viability": "> 46"},
      {"compound": "CCCCCCCCCC(=O)O[C@H]1CC[C@H]2[C@@H]3CCC4=CC(=O)CC[C@@H]4[C@H]3CC[C@]12C", "note": "[Nandrolone decanoate]", "IC50 of cell viability": "> 46"},
      {"compound": "c1ccc2ccccc2c1", "note": "[Naphthalene]", "IC50 of cell viability": "> 46"},
      {"compound": "CN[S+](=O)([O-])CCc1ccc2[nH]cc(C3CCN(C)CC3)c2c1", "note": "[Naratriptan Hydrochloride]", "IC50 of cell viability": "> 46"},
      {"compound": "C[C@@H]1O[C@@H](O[C@@H]2\\C=C/C=C\\C=C/C=C\\C[C@H](C)OC(=O)/C=C\\[C@H]3O[C@@H]3C[C@H](O)C[C@]3(O)C[C@@H](O)[C@@H](C(=O)O)[C@H](C2)O3)[C@H](O)[C@H](N)[C@@H]1O", "note": "[Natamycin]", "IC50 of cell viability": "> 46"},
      {"compound": "CCCc1c2oc(C(=O)O)cc(=O)c2cc2c(=O)cc(C(=O)O)n(CC)c12", "note": "[Nedocromil]", "IC50 of cell viability": "> 46"},
      {"compound": "CCC/1=N/N(CCCN2CCN(CC2)C3=CC(=CC=C3)Cl)C(=O)N1CCOC4=CC=CC=C4", "note": "[Nefazodone hydrochloride]", "IC50 of cell viability": "> 46"},
      {"compound": "C/C=C1/NN(CCCN2CCN(c3cccc(Cl)c3)CC2)C(=O)N1CCOc1ccccc1", "note": "[Nefazodone hydrochloride]", "IC50 of cell viability": "> 46"},
      {"compound": "Cc1cccc(C)c1NC(=O)CN1CCCC1=O", "note": "[Nefiracetam]", "IC50 of cell viability": "> 46"},
      {"compound": "CN1CCO[C@H](c2ccccc2)c2ccccc2C1", "note": "[Nefopam hydrochloride]", "IC50 of cell viability": "> 46"},
      {"compound": "Cc1c(O)cccc1C(=O)N[C@@H](CSc1ccccc1)[C@H](O)CN1C[C@H]2CCCC[C@H]2C[C@H]1C(=O)NC(C)(C)C", "note": "[Nelfinavir Mesylate]", "IC50 of cell viability": "> 46"},
      {"compound": "CNc1cc(OC)c(C(=O)NC2CCN(Cc3ccccc3)C2C)cc1Cl", "note": "(configuration not stated) [Nemonapride]", "IC50 of cell viability": "> 46"},
      {"compound": "CCOC(=O)c1cc(-c2ccccc2)nc2ccc(C)cc12", "note": "[Neocinchophen]", "IC50 of cell viability": "> 46"},
      {"compound": "NC[C@@H]1O[C@@H](O[C@H]2[C@@H](O)[C@H](O[C@@H]3[C@@H](O)[C@H](N)C[C@H](N)[C@H]3O[C@H]3O[C@H](CN)[C@@H](O)[C@H](O)[C@H]3N)O[C@@H]2CO)[C@H](N)[C@@H](O)[C@@H]1O", "note": "[Neomycin Trisulfate Hydrate]", "IC50 of cell viability": "> 46"},
      {"compound": "NC(=O)Cc1cccc(C(=O)c2ccccc2)c1N", "note": "[Nepafenac]", "IC50 of cell viability": "> 46"},
      {"compound": "C1CN\\C(N1)=C/C2=CC=CC3=C2C=CC=C3", "note": "[Nephazoline]", "IC50 of cell viability": "> 46"},
      {"compound": "CCN[C@@H]1C[C@H](N)[C@H](O[C@@H]2O\\C(=C/C[C@H]2N)CN)[C@@H](O)[C@@H]1O[C@@H]3OC[C@@](C)(O)[C@@H](NC)[C@H]3O", "note": "[Netilmicin sulfate]", "IC50 of cell viability": "> 46"},
      {"compound": "Cc1ccnc2c1NC(=O)c1cccnc1N2C1CC1", "note": "[Nevirapine]", "IC50 of cell viability": "> 46"},
      {"compound": "NC(=O)c1cccnc1", "note": "[Niacinamide]", "IC50 of cell viability": "> 46"},
      {"compound": "O=C(CCNNC(=O)c1ccncc1)NCc1ccccc1", "note": "[Nialamide]", "IC50 of cell viability": "> 46"},
      {"compound": "CCCCC(CC)CCC(CC(C)C)OS(=O)(=O)[O-]", "note": "(configuration not stated) [NiaproofÆ 4]", "IC50 of cell viability": "> 46"},
      {"compound": "CC(CNC(=O)c1cccnc1)NC(=O)c1cccnc1", "note": "(configuration not stated) [Nicaraven]", "IC50 of cell viability": "> 46"},
      {"compound": "O=C(OCC(COC(=O)c1cccnc1)(COC(=O)c1cccnc1)COC(=O)c1cccnc1)c1cccnc1", "note": "[Niceritrol]", "IC50 of cell viability": "> 46"},
      {"compound": "O=C(OCC1(COC(=O)c2cccnc2)CCCC(COC(=O)c2cccnc2)(COC(=O)c2cccnc2)C1O)c1cccnc1", "note": "[Nicomolol]", "IC50 of cell viability": "> 46"},
      {"compound": "O=C(NCCO[N+](=O)[O-])c1cccnc1", "note": "[Nicorandil]", "IC50 of cell viability": "> 46"},
      {"compound": "NC(=S)N/N=C/c1cccnc1", "note": "[Nicothiazone]", "IC50 of cell viability": "> 46"},
      {"compound": "Cn1c(NCCN(CCO)CCCc2ccc([N+](=O)[O-])cc2)cc(=O)n(C)c1=O", "note": "[Nifekalant]", "IC50 of cell viability": "> 46"},
      {"compound": "CC(C)NCC(O)c1ccc([N+](=O)[O-])cc1", "note": "(configuration not stated) [Nifenalol]", "IC50 of cell viability": "> 46"},
      {"compound": "CN1N(C2=CC=CC=C2)C(=O)C(=C1/C)/NC(=O)C3=CN=CC=C3", "note": "[Nifenazone]", "IC50 of cell viability": "> 46"},
      {"compound": "O=C(N/N=C\\c1ccc([N+](=O)[O-])o1)c1ccc(O)cc1", "note": "[Nifuroxazide]", "IC50 of cell viability": "> 46"},
      {"compound": "O=C(N/N=C/c1ccc([N+](=O)[O-])o1)c1cc([N+](=O)[O-])cc([N+](=O)[O-])c1O", "note": "[Nifursol]", "IC50 of cell viability": "> 46"},
      {"compound": "C[C@H]1C[S+](=O)([O-])CCN1/N=C\\c1ccc([N+](=O)[O-])o1", "note": "[Nifurtimox]", "IC50 of cell viability": "> 46"},
      {"compound": "CCN(CC)C(=O)c1cccnc1", "note": "[Nikethamide]", "IC50 of cell viability": "> 46"},
      {"compound": "CC1(C)NC(=O)N(c2ccc([N+](=O)[O-])c(C(F)(F)F)c2)C1=O", "note": "[Nilutamide]", "IC50 of cell viability": "> 46"},
      {"compound": "C[S+](=O)([O-])Nc1ccc([N+](=O)[O-])cc1Oc1ccccc1", "note": "[Nimesulide]", "IC50 of cell viability": "> 46"},
      {"compound": "O=C1NCCN1c1ncc([N+](=O)[O-])s1", "note": "[Niridazole]", "IC50 of cell viability": "> 46"},
      {"compound": "COC(=O)C1=C(C)NC(C)=C(C(=O)OCC(C)C)C1c1ccccc1[N+](=O)[O-]", "note": "(configuration not stated) [Nisoldipine]", "IC50 of cell viability": "> 46"},
      {"compound": "CC(=O)Nc1ncc([N+](=O)[O-])s1", "note": "[Nithiamide]", "IC50 of cell viability": "> 46"},
      {"compound": "Cc1nc([N+](=O)[O-])cn1-c1ccc([N+](=O)[O-])cc1", "note": "[Nitrefazole]", "IC50 of cell viability": "> 46"},
      {"compound": "O=[N+]([O-])c1ccccc1", "note": "[Nitrobenzene]", "IC50 of cell viability": "> 46"},
      {"compound": "O=C1CN(/N=C/c2ccc([N+](=O)[O-])o2)C(=O)N1", "note": "[Nitrofurantoin]", "IC50 of cell viability": "> 46"},
      {"compound": "NC(=O)N/N=C/c1ccc([N+](=O)[O-])o1", "note": "[Nitrofurazone]", "IC50 of cell viability": "> 46"},
      {"compound": "O=[N+]([O-])c1ccc(Oc2ccc(N=C=S)cc2)cc1", "note": "[Nitroscanate]", "IC50 of cell viability": "> 46"},
      {"compound": "CC(C)OC(=O)c1cc(C(=O)OC(C)C)cc([N+](=O)[O-])c1", "note": "[Nitrothal-isopropyl]", "IC50 of cell viability": "> 46"},
      {"compound": "CN/C(=C\\[N+](=O)[O-])NCCSCc1csc(CN(C)C)n1", "note": "[Nizatidine]", "IC50 of cell viability": "> 46"},
      {"compound": "CCN(CC)Cc1nccn1-c1ccc([N+](=O)[O-])cc1C(=O)c1ccccc1Cl", "note": "[Nizofenone]", "IC50 of cell viability": "> 46"},
      {"compound": "CCCCCCCCC(=O)NCc1ccc(O)c(OC)c1", "note": "[Nonanamide, N-[(4-hydroxy-3-methoxyphenyl)methyl]-]", "IC50 of cell viability": "> 46"},
      {"compound": "O=C(O)CCCCCCCC(=O)O", "note": "[Nonanedioic acid]", "IC50 of cell viability": "> 46"},
      {"compound": "C[C@]12CC[C@H]3[C@@H](CCC4=CC(=O)CC[C@@H]43)[C@@H]1CC[C@@H]2O", "note": "[Norandrostenolone]", "IC50 of cell viability": "> 46"},
      {"compound": "NC[C@H](O)c1ccc(O)c(O)c1", "note": "[Norepinephrine bitartrate]", "IC50 of cell viability": "> 46"},
      {"compound": "C[C@@]12CC[C@H]\\3[C@@H](CC\\C4=C3CCC(=O)C4)[C@H]1CC[C@]2(O)C#C", "note": "[Norethynodrel]", "IC50 of cell viability": "> 46"}
    ]}
  ]
}
